Data published in a compilation of properties of binary mixtures (doi:10.1021/acs.jced.0c00801).

Assay: xn = mol fraction of the nth substance listed
Conditions: 101 kPa

CC[n+]1ccn(C)c1.N#C[S-] + CCO
Conditions	speed of sound, 283.15 K [m/s]	speed of sound, 293.15 K [m/s]	speed of sound, 303.15 K [m/s]	speed of sound, 313.15 K [m/s]	speed of sound, 323.15 K [m/s]	viscosity, 283.15 K [mPa·s]	viscosity, 293.15 K [mPa·s]	viscosity, 303.15 K [mPa·s]	viscosity, 313.15 K [mPa·s]	viscosity, 323.15 K [mPa·s]
x1 = 0.0504	1281.9	1249.4	–	–	1155	1.93	1.58	–	–	0.94
x1 = 0.1001	1345.1	1314.4	1284.3	1254.6	1225.4	2.34	1.91	1.59	1.34	1.14
x1 = 0.2012	1466.4	1438.1	–	1382.8	1355.8	3.49	2.88	–	1.93	1.64
x1 = 0.3003	1560.9	1534	1507.4	1481.3	1455.6	4.8	3.84	3.14	2.63	2.24
x1 = 0.3945	1641	1614.9	1589.2	1563.9	1539.2	6.72	5.3	4.29	3.56	3
x1 = 0.5007	1711	1685.5	1660.4	1635.8	1611.5	9.41	7.24	5.73	4.67	3.91
x1 = 0.6016	1768.2	1743.3	1718.9	–	1671.5	12.82	9.63	7.51	–	4.97
x1 = 0.7018	1805.7	1781.1	1757	–	–	16.95	12.52	9.54	–	–
x1 = 0.8045	–	1813.9	1790	1766.5	1743.5	–	16.42	12.35	9.58	7.66
x1 = 0.8971	–	–	1813.9	–	1767.8	–	–	15.08	–	9.05
x1 = 0.951	1875.9	1851.7	–	1804.6	–	34.19	23.87	–	13	–
x1 = 1	1887.6	1863.4	1839.7	–	1793.9	38.41	26.31	19.03	–	11.1

CCO + CC[n+]1ccn(C)c1.N#C[S-]
x2 = 0
Conditions	speed of sound [m/s]	viscosity [mPa·s]
283.15 K	1194.7	1.44
313.15 K	1092.2	0.83
323.15 K	1059.1	0.7
